Patent US20260109721A1, “IONIZABLE CATIONIC LIPIDS INCORPORATING SILICON: SYNTHESIS AND LNP FORMULATION” (priority 2023, published 2026)

System: HeLa cells
Assay: Transfection efficiency with Luciferase (SecNLuc) mRNA, Nano-Glo assay (Method A)
Format: cell-based
Conditions: Luc mRNA, 24 h, luminescence; for Transfection 10 ng mRNA: 10 ng mRNA/well; for Transfection 50 ng mRNA: 50 ng mRNA/well; for Transfection 100 ng mRNA: 100 ng mRNA/well
Protocol: The synthesized lipids were tested in term of in vitro transfection efficacy and toxicity on HeLa cells. In order to perform the mentioned biological tests, appropriate LNPs had to be formulated from the synthesized lipids. The formulation technique was different in Method A and B. The particle size, polydispersity index (PDI) and zeta potential of resulting LNPs were determined by means of Dynamic Light Scattering technique (DLS). Prior to biological testing the encapsulation efficiency (EE) of the loaded LNPs was determined by using RiboGreen RNA assay. In case of Method A Luc mRNA while in case of Method B GFP mRNA was transfected into the cells. In parallel with the transfection experiments, toxicity of the investigated LNPs was determined, in case of Method A resazurin assay while in case of Method B MTT assay was used. Additionally, the toxicity of the lipids was investigated on HepG2 cells and IC50 values were determined.
• 1. Prepare mRNA solution by adding 100 ng mRNA (SecNLuc, #P009024, RiboPro) to 5 μl Opti-MEM • multiply by number of wells, include different concentrations and add 10% extra • a standard set-up we use is 100 ng-50 ng-10 ng mRNA/well in triplicate, which would need […] mRNA (includes 10% extra)
• 2. (If applicable) Prepare different concentrations in Opti-MEM (for instance 100/50/10 ng). • 3. Add 10 μl to each well and mix carefully by pipetting. • 4. Mix by swirling the plate horizontally at modest speed. Reverse in direction 3 times. • 5. Incubate for 24 hours (incubator).
This protocol is applied to measure luciferase activity for secreted NanoLuc and is based on the protocol by Promega (Nano-Glo® Luciferase Assay System #N1110-1150). The protocol is designed for a 384-wells plate, but volumes can be changed accordingly for other plates.
• 1. Plate cells (HeLa) in 96-well plate, grow until 80% confluent and transfect with SecNanoLuc mRNA and incubate for the desired period (24 h). • 2. After incubation, the translated protein is accumulated in the medium. Transfer medium to a new plate or tubes. • 3. Transfer 12 μl of each sample to a black-walled, clear-bottom 384-well plate • Black-walled plates are important to prevent shine-through of luminescence from other wells; alternatively, multiple wells between samples can be left empty. • 4. Set-up plate reader • 5. Prepare the desired amount of Nano-Glo® Luciferase Assay Reagent by combining one volume of Nano-Glo® Luciferase Assay Substrate with 50 volumes of Nano-Glo® Luciferase Assay Buffer: • a. composition: 100 mM MES pH 6; 1 mM EDTA; […]; 150 mM KCl; 1 mM DTT; 35 mM Thiourea; • b. briefly spin tubes containing substrate in a microcentrifuge before use. • 6. Add and mix (by pipetting) 12 μl Nano-Glo® Luciferase Assay Reagent per well • Wait approximately 3 minutes before measuring luminescence. […] Measure luminescence in plate reader using standard protocol luciferase (this includes mixing sample in plate reader)

Compound	Transfection 10 ng mRNA	Transfection 50 ng mRNA	Transfection 100 ng mRNA
CCCCCCCC/C=C\CCCCCCCC(OCC(CCCCCCCC)SCCCCCCCCCC)O[Si](C)(C)OCCCCCCN(CCO)CCO (stereo not drawn) [Example 73, (Z)-13-(heptadec-8-en-1-yl)-3-(2-hydroxyethyl)-11,11-dimethyl-16-octyl-10,12,14-trioxa-17-thia-3-aza-11-silaheptacosan-1-ol]	6.90E+01	9.88E+02	4.08E+03
CCCCCCCC/C=C\CCCCCCCC(OCCCCCCCCCCCC1CCCCC1)O[Si](C)(C)OCCCCCCN(CCO)CCO (stereo not drawn) [Example 74, (Z)-25-cyclohexyl-13-(heptadec-8-en-1-yl)-3-(2-hydroxyethyl)-11,11-dimethyl-10,12,14-trioxa-3-aza-11-silapentacosan-1-ol]	2.47E+03	3.87E+04	1.11E+05
CCCCCCCC/C=C\CCCCCCCC(OCCC(C)CCCC(C)CCCC(C)CCCC(C)C)O[Si](C)(C)OCCCCCCN(CCO)CCO (stereo not drawn) [Example 75, (Z)-13-(heptadec-8-en-1-yl)-3-(2-hydroxyethyl)-11,11,17,21,25,29-hexamethyl-10,12,14-trioxa-3-aza-11-silatriacontan-1-ol]	1.68E+03	2.82E+04	1.07E+05
CCCCCCCC/C=C\CCCCCCCC(OCCCCCCCCCCCCCCC(C)C)O[Si](C)(C)OCCCCCCN(CCO)CCO (stereo not drawn) [Example 76, (Z)-13-(heptadec-8-en-1-yl)-3-(2-hydroxyethyl)-11,11,29-trimethyl-10,12,14-trioxa-3-aza-11-silatriacontan-1-ol]	3.30E+03	6.71E+04	3.34E+05
CCCCC/C=C\C/C=C\CCCCCCCCOC(CCCCCCC/C=C\C/C=C\CCCCC)O[Si](C)(C)OCCCCCCN(C)[C@H](CO)Cc1ccccc1 (stereo partly drawn) [Example 77, (2S,23Z,26Z)-2-benzyl-13-((8Z,11Z)-heptadeca-8,11-dien-1-yl)-3,11,11-trimethyl-10,12,14-trioxa-3-aza-11-siladotriaconta-23,26-dien-1-ol]	3.44E+02	2.55E+03	6.09E+03
CCCCCCCC/C=C\CCCCCCCCOC(CCCCCCC/C=C\CCCCCCCC)O[Si](C)(C)OCCCCCCN(C)[C@H](CO)Cc1ccccc1 (stereo partly drawn) [Example 78, (2S,Z)-2-benzyl-13-((Z)-heptadec-8-en-1-yl)-3,11,11-trimethyl-10,12,14-trioxa-3-aza-11-siladotriacont-23-en-1-ol]	2.45E+03	1.55E+04	3.54E+04
CCCCC/C=C\C/C=C\CCCCCCCCOC(CCCCCCC/C=C\C/C=C\CCCCC)O[Si](C)(C)OCCCCCCN(C)C (stereo not drawn) [Example 79, (20Z,23Z)-10-((8Z,11Z)-heptadeca-8,11-dien-1-yl)-N,N,8,8-tetramethyl-7,9,11-trioxa-8-silanonacosa-20,23-dien-1-amine]	2.45E+03	8.30E+04	2.01E+05
CCCCC/C=C\C/C=C\CCCCCCCCO[Si](C)(C)OC(CCCCCCC/C=C\C/C=C\CCCCC)OCCCN(C)C (stereo not drawn) [Example 80, (17Z,20Z)-5-((8Z,11Z)-heptadeca-8,11-dien-1-yl)-N,N,7,7-tetramethyl-4,6,8-trioxa-7-silahexacosa-17,20-dien-1-amine]	1.90E+01	1.25E+02	5.41E+02
CCCCC/C=C\C/C=C\CCCCCCCCO[Si](C)(C)OC(CCCCCCC/C=C\CCCCCCCC)OCCCN(C)C (stereo not drawn) [Example 81, (17Z,20Z)-5-((Z)-heptadec-8-en-1-yl)-N,N,7,7-tetramethyl-4,6,8-trioxa-7-silahexacosa-17,20-dien-1-amine]	1.57E+02	5.31E+02	5.71E+02
